Consider four compounds from EPA's ToxRefDB 2.

Molecules are shown by their SMILES.

In data set [1] the test system is rat. To be noted: Prenatal developmental toxicity study; wistar; Oral; Feed; dose end: 15 GD; group: maternal; systemic / in life observation / body weight / body weight gain + systemic / in life observation / food consumption / food consumption.
In data set [2] the test system is rat. To be noted: Chronic toxicity, fischer, Oral, Feed, dose end: 1 year, group: systemic.
In data set [3] the test system is dog. To be noted: Chronic toxicity, beagle, Oral, Capsule, dose end: 52 week, group: systemic.
For data set [4], the system named is rat. The settings on record: Combined chronic toxicity/carcinogenicity, fischer, Oral, Feed, dose end: 2 year, group: systemic.
Data set [5] concerns mouse. The settings on record: Subchronic oral toxicity in rodents, B6C3F1, Feed, dose end: 3 month, group: systemic.
The test system of data set [6] is dog. To be noted: Subchronic oral toxicity in nonrodent, beagle, Capsule, dose end: 90 day, group: systemic.
For data set [7], the system named is rat. To be noted: Multigenerational reproductive toxicity study, fischer, Oral, Feed, dose end: 1 generation.
For data set [8], the system named is mouse. To be noted: Chronic toxicity; b6c3f1; Oral; Feed; dose end: 2 year; group: systemic; systemic / clinical chemistry / alkaline phosphatase (alp/alk) / alkaline phosphatase (alp/alk) + systemic / organ weight / liver / absolute….
The subject of data set [9] is rabbit. To be noted: Sub-acute repeat dose toxicity; new zealand white; Oral; Gavage/Intubation; dose end: 5 day; group: systemic; systemic / in life observation / body weight / body weight + systemic / in life observation / food consumption / food consumption.
Data set [10] has as its system dog. To be noted: Chronic toxicity; beagle; Oral; Gavage/Intubation; dose end: 364 day; group: systemic; systemic / in life observation / body weight / body weight + systemic / in life observation / clinical signs / arrhythmia + systemic / in ….
Data set [11] deals with rat. The settings on record: Fertility (Segment I), sprague dawley, Oral, Gavage/Intubation, dose end: 1 generation, group: parental.
Data set [12] deals with rabbit. The settings on record: Prenatal developmental toxicity study, Oral, Gavage/Intubation, dose end: 19 GD.
The test system of data set [13] is rat. To be noted: Sub-acute repeat dose toxicity, sprague dawley, Oral, Gavage/Intubation, dose end: 30 day, group: systemic.
In data set [14] the test system is rat. To be noted: Sub-acute repeat dose toxicity, sprague dawley, Oral, Gavage/Intubation, dose end: 14 day, group: systemic.
For data set [15], the system named is rat. The settings on record: Fertility (Segment I), sprague dawley, Oral, Gavage/Intubation, dose end: 1 generation, group: parental. This is another data set of the same source.
Data set [16] has as its system dog. To be noted: Sub-acute repeat dose toxicity; beagle; Oral; Gavage/Intubation; dose end: 30 day; group: systemic; systemic / clinical chemistry / potassium / potassium + systemic / in life observation / clinical signs / emesis + systemic / in life ….
Data set [17] deals with mouse. The settings on record: Sub-acute repeat dose toxicity, Oral, Feed, dose end: 14 day, group: systemic.
In data set [18] the test system is rat. To be noted: Chronic toxicity; sprague dawley; Oral; Gavage/Intubation; dose end: 182 day; group: systemic; systemic / clinical chemistry / glucose / glucose + systemic / clinical chemistry / triglycerides / triglycerides + systemic / in life ….
For data set [19], the system named is rat. To be noted: Sub-acute repeat dose toxicity, sprague dawley, Oral, Feed, dose end: 14 day, group: systemic.
Data set [20] deals with dog. To be noted: Sub-acute repeat dose toxicity; beagle; Oral; Gavage/Intubation; dose end: 10 day; group: systemic; systemic / in life observation / clinical signs / abnormal feces + systemic / in life observation / clinical signs / salivation + systemic….
Data set [21] deals with dog. The settings on record: Chronic toxicity; beagle; Oral; Feed; dose end: 52 week; group: systemic; systemic / organ weight / liver / relative to body weight + systemic / hematology / platelet / platelet + systemic / organ weight / kidney….
In data set [22] the test system is rat. The settings on record: Prenatal developmental toxicity study, sprague dawley, Oral, Gavage/Intubation, dose end: 15 GD.
In data set [23] the test system is mouse. The settings on record: Carcinogenicity, Charles River, Oral, Feed, dose end: 104 week, group: systemic.
Where [24] appears, read: systemic / organ weight / adrenal gland / absolute + systemic / organ weight / adrenal gland / relative to body weight + systemic / organ ….
[25] abbreviates: systemic / hematology / [other] / [other] + systemic / hematology / jolly bodies / jolly bodies + systemic / hematology / macrocytosis / ….
The mark [26] stands for this setting: systemic / hematology / polychromasia / polychromasia + systemic / hematology / lymphocyte / lymphocyte + systemic / in life observation / ….
Setting [27] is: systemic / in life observation / clinical signs / urine, discoloration + systemic / clinical chemistry / glucose / glucose.
The mark [28] stands for this setting: systemic / pathology microscopic / mammary gland / fibroadenoma + systemic / clinical chemistry / urea nitrogen / urea nitrogen + systemic….
[29] abbreviates: group: offspring, systemic / in life observation / clinical signs / urogenital staining + systemic / urinalysis / appearance and color / appearance and color.
Setting [30] is: group: parental, systemic / organ weight / liver / absolute + systemic / organ weight / liver / relative to body weight + systemic / in life observation / ….
Where [31] appears, read: systemic / in life observation / body weight / body weight + systemic / in life observation / clinical signs / salivation + systemic / in ….
Setting [32] is: systemic / in life observation / body weight / body weight + systemic / in life observation / food consumption / food consumption.
Where [33] appears, read: group: developmental, developmental / developmental malformation / bone / delayed ossification + systemic / in life observation / body weight / fetal weight.
Where [34] appears, read: group: maternal, systemic / in life observation / body weight / body weight gain + systemic / in life observation / food consumption / food consumption.
The mark [35] stands for this setting: systemic / clinical chemistry / 5' nucleotidase / 5' nucleotidase + systemic / clinical chemistry / [other] / [other] + systemic / clinical ….
[36] abbreviates: systemic / hematology / erythrocyte (rbc) count differential / erythrocyte (rbc) + systemic / hematology / hematocrit (hct) / hematocrit (….
Where [37] appears, read: systemic / in life observation / clinical signs / salivation.
Setting [38] is: systemic / in life observation / body weight / body weight + systemic / in life observation / body weight / body weight gain + systemic / in….
Where [39] appears, read: systemic / in life observation / food consumption / food consumption + systemic / in life observation / body weight / body weight.
Where [40] appears, read: systemic / in life observation / food consumption / food consumption + systemic / in life observation / body weight / body weight + systemic….
Where [41] appears, read: group: developmental, developmental / developmental malformation / kidney / small renal papilla.
Setting [42] is: group: developmental, developmental / developmental malformation / kidney / small renal papilla + developmental / developmental malformation / spinal cord / ….
Where [43] appears, read: group: maternal, systemic / in life observation / food consumption / food consumption + systemic / pathology gross / spleen / discolored.
Where [44] appears, read: group: maternal, systemic / in life observation / food consumption / food consumption + systemic / pathology gross / spleen / discolored + reproductive / ….
Setting [45] is: systemic / in life observation / body weight / body weight gain + systemic / pathology microscopic / lung / carcinoma + systemic / in life ….

In the case of `CC(C)(C)c1ccc(O)cc1` [4-tert-Butylphenol], in the data set with rat [1], the LEL was determined as 3590 mg/kg/day and the LOAEL worked out at 3590 mg/kg/day.

Take `C=C(C)CN(CC)c1c([N+](=O)[O-])cc(C(F)(F)F)cc1[N+](=O)[O-]` [Ethalfluralin]: the LOAEL with rat [2] (systemic / in life observation / body weight / body weight gain + systemic / organ weight / liver / relative to body weight) was 37.5 mg/kg/day; in the data set on dog [3] (setting [25]), 20 mg/kg/day; with rat [4] (setting [28]), more than 37.5 mg/kg/day; in the data set on mouse [5] (systemic / in life observation / body weight / body weight + systemic / in life observation / body weight / body weight gain), 538 mg/kg/day; in the data set on dog [6] (systemic / in life observation / clinical signs / anorexia + systemic / in life observation / clinical signs / vomitting), 125 mg/kg/day; with rat [7] (setting [29]), more than 61 mg/kg/day. For the same compound, the LOAEL with rat [7] (group: parental, systemic / organ weight / liver / absolute + systemic / organ weight / liver / relative to body weight) came to 61 mg/kg/day; with mouse [8], 47 mg/kg/day. For the same compound, the NOAEL with rat [2] (systemic / in life observation / body weight / body weight gain + systemic / organ weight / liver / relative to body weight + systemic / …) was 12.5 mg/kg/day; in the data set with dog [3] (setting [25]), 4 mg/kg/day; with rat [4] (setting [28]), not below 37.5 mg/kg/day; with mouse [5] (systemic / in life observation / body weight / body weight + systemic / clinical chemistry / alanine aminotransferase (alt/sgpt) / alanine …) it was 285 mg/kg/day; in the data set with rat [7] (setting [29]) it was not below 61 mg/kg/day; with rat [7] (setting [30]) it was 20 mg/kg/day. The NOAEL with mouse [8] was 11.6 mg/kg/day. Also, the LEL was found to be 5 mg/kg/day in the data set on rat [2] (setting [24]); 4 mg/kg/day with dog [3] (setting [26]); 5 mg/kg/day in the data set with rat [4] (setting [27]); 136 mg/kg/day with mouse [5] (systemic / clinical chemistry / bilirubin / total bilirubin + systemic / organ weight / kidney / absolute); 125 mg/kg/day in the data set with dog [6] (systemic / in life observation / clinical signs / anorexia + systemic / in life observation / clinical signs / vomitting + systemic / in …); 20 mg/kg/day with rat [7] (setting [29]). The LEL in the data set with rat [7] (group: parental, systemic / organ weight / liver / relative to body weight + systemic / in life observation / clinical signs / urogenital staining + systemic…) is 20 mg/kg/day; with mouse [8], 47 mg/kg/day. Further, the NEL in the data set with rat [2] (setting [24]) was less than 5 mg/kg/day; in the data set with dog [3] (setting [26]), less than 4 mg/kg/day; in the data set on rat [4] (setting [27]), less than 5 mg/kg/day; in the data set on mouse [5] (systemic / in life observation / body weight / body weight gain + systemic / clinical chemistry / bilirubin / total bilirubin + systemic / …), 68 mg/kg/day; in the data set on rat [7] (setting [29]), 8 mg/kg/day; with rat [7] (setting [30]), 8 mg/kg/day. The NEL in the data set with mouse [8] was 11.6 mg/kg/day.

In the case of `O=C(Cc1ccc(Cl)c(Cl)c1)N(O)[C@H](CN1CC[C@H](O)C1)c1ccccc1`, the LEL in the data set with rabbit [9] worked out at 1 mg/kg/day; with dog [10] it was 1 mg/kg/day; in the data set with rat [11] (setting [32]) it was 10 mg/kg/day; in the data set with rat [14] (setting [37]) it was 25 mg/kg/day; in the data set on rat [15] (setting [32]) it was 10 mg/kg/day; in the data set with mouse [17] (systemic / in life observation / clinical signs / hunched posture), 300 mg/kg/day. Also, the LEL in the data set with rat [19] (setting [39]) and in the data set on dog [20] was 1 mg/kg/day in each case. The LOAEL is more than 150 mg/kg/day in the data set with rabbit [9]; more than 1 mg/kg/day in the data set with dog [10]; more than 50 mg/kg/day in the data set on rat [11] (setting [31]); more than 5 mg/kg/day with rabbit [12] (setting [33]); more than 5 mg/kg/day with rabbit [12] (setting [34]); more than 150 mg/kg/day with rat [13] (setting [35]). Further, the LOAEL in the data set with rat [14] (setting [36]) was more than 500 mg/kg/day; in the data set with rat [15] (setting [31]), more than 50 mg/kg/day; with dog [16], more than 1 mg/kg/day; in the data set on mouse [17] (setting [38]), more than 1000 mg/kg/day; in the data set on rat [18], more than 150 mg/kg/day; in the data set on rat [19] (setting [40]), more than 300 mg/kg/day. In addition, the LOAEL in the data set with dog [20] was more than 1 mg/kg/day. In addition, the NEL in the data set with rabbit [9] was less than 1 mg/kg/day; in the data set with dog [10], less than 1 mg/kg/day; in the data set with rat [11] (setting [31]), 1 mg/kg/day; with rat [13] (systemic / clinical chemistry / [other] / [other] + systemic / clinical chemistry / albumin / albumin + systemic / clinical chemistry / …) it was 1 mg/kg/day; with rat [14] (setting [37]), less than 25 mg/kg/day; with rat [15] (setting [31]) it was 1 mg/kg/day. Also, the NEL in the data set on rat [18] was 1 mg/kg/day; in the data set with rat [19] (setting [39]) it was less than 1 mg/kg/day; in the data set on dog [20], less than 1 mg/kg/day. In addition, the NOAEL with rabbit [9] is not below 150 mg/kg/day; with dog [10] it was not below 1 mg/kg/day; with rat [11] (setting [31]), not below 50 mg/kg/day; with rabbit [12] (setting [33]), not below 5 mg/kg/day; with rabbit [12] (setting [34]), not below 5 mg/kg/day; in the data set with rat [13] (setting [35]), not below 150 mg/kg/day. In addition, the no-observed-adverse-effect level (NOAEL) in the data set with rat [14] (setting [36]) is not below 500 mg/kg/day; with rat [15] (setting [31]) it was not below 50 mg/kg/day; in the data set with dog [16], not below 1 mg/kg/day; in the data set on mouse [17] (setting [38]) it was not below 1000 mg/kg/day; with rat [18], not below 150 mg/kg/day; with rat [19] (setting [40]), not below 300 mg/kg/day. The no-observed-adverse-effect level (NOAEL) with dog [20] is not below 1 mg/kg/day.

With `CN(C)C(=O)Nc1cccc(C(F)(F)F)c1` [Fluometuron], the NEL is 237 mg/kg/day with dog [21], 10 mg/kg/day in the data set with rat [22] (setting [42]), 10 mg/kg/day with rat [22] (setting [44]) and 1.2 mg/kg/day in the data set with mouse [23] (setting [45]). The NOAEL is 237 mg/kg/day in the data set on dog [21], 10 mg/kg/day with rat [22] (setting [42]), 10 mg/kg/day in the data set on rat [22] (setting [44]) and 61.5 mg/kg/day in the data set with mouse [23] (setting [45]). The LEL turned out to be 100 mg/kg/day in the data set on rat [22] (setting [41]), 100 mg/kg/day with rat [22] (setting [43]) and 61.5 mg/kg/day in the data set with mouse [23] (systemic / pathology microscopic / lung / carcinoma + systemic / in life observation / clinical signs / [other]). Further, the LOAEL with rat [22] (setting [41]) was 100 mg/kg/day; in the data set with rat [22] (setting [43]), 100 mg/kg/day; in the data set on mouse [23] (systemic / in life observation / body weight / body weight gain) it was 260 mg/kg/day.

Usually LOAEL stands for the lowest dose or exposure tested at which an adverse effect was seen. What is called NOAEL is the highest dose or exposure tested at which no adverse effect was seen.
